Source: US20180243298A1, “TRPV3 MODULATORS” (AbbVie Inc., priority 2015, published 2018)

Biological target: T1, human TRPV3 (Homo sapiens, UniProt Q8NET8)
T1 construct: expressed in transfected cells; host or cells: HEK293
T1 sequence (Q8NET8 1-790): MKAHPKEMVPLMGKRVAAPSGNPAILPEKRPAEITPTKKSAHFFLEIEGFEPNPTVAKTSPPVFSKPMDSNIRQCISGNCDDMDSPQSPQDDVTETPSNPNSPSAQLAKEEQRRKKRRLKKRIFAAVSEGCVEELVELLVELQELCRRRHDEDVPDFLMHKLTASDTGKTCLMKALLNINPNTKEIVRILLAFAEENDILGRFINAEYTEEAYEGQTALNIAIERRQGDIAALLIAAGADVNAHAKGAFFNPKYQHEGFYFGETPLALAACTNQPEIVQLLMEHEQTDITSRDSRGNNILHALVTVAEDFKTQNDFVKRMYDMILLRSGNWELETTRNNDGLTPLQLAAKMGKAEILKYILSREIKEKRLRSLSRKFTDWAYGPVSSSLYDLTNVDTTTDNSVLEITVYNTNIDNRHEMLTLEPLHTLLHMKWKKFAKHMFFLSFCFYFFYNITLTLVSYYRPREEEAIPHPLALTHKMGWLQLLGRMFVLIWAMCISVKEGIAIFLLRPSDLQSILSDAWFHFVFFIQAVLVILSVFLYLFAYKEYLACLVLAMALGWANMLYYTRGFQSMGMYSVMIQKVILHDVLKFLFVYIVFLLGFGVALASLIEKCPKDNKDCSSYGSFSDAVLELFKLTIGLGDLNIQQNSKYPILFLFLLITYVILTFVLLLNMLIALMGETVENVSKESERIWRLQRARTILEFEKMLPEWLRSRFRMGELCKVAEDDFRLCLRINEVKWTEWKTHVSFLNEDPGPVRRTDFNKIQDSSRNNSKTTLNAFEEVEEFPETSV
Assay: Calcium flux assay (FLIPR TETRA), recombinant HEK293 cells expressing TRPV3, 2-APB response
Type: cell-based
Settings: 2-APB at its EC80
Outline: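 HEK293 cells stably expressing human or mouse TRPV3, loaded with Calcium-4 dye for 90–120 min, read on FLIPR TETRA. Peak fluorescence rise over baseline expressed as percent of the maximal response to 2-APB at its EC80 without compound.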

Row | SMILES | IC50 [nM]
1 | COc1ncnc(OC)c1C(=O)Nc1nc(C2CCC2)c(F)s1 [Example 101, N-(4-cyclobutyl-5-fluoro-1,3-thiazol-2-yl)-4,6-dimethoxypyrimidine-5-carboxamide] | 50 to 100
2 | COc1ncnc(OC)c1C(=O)Nc1nc(C2CCC2)c(C#N)s1 [Example 102, N-(5-cyano-4-cyclobutyl-1,3-thiazol-2-yl)-4,6-dimethoxypyrimidine-5-carboxamide] | 100 to 500
3 | COc1ncnc(OC)c1C(=O)Nc1nc(/C=C/C(C)(C)C)cs1 [Example 104, N-{4-[(1E)-3,3-dimethylbut-1-en-1-yl]-1,3-thiazol-2-yl}-4,6-dimethoxypyrimidine-5-carboxamide] | > 1000
4 | COc1ncnc(OC)c1C(=O)Nc1nc(CCC2CC2)cs1 [Example 105, N-[4-(2-cyclopropylethyl)-1,3-thiazol-2-yl]-4,6-dimethoxypyrimidine-5-carboxamide] | 50 to 100
5 | COc1ncnc(OC)c1C(=O)Nc1nc(/C=C/c2ccc(F)cc2)cs1 [Example 106, N-{4-[(E)-2-(4-fluorophenyl)ethenyl]-1,3-thiazol-2-yl}-4,6-dimethoxypyrimidine-5-carboxamide] | 500 to 1000
6 | COc1cc(F)ccc1-c1csc(NC(=O)c2c(OC)ncnc2OC)n1 [Example 108, N-[4-(4-fluoro-2-methoxyphenyl)-1,3-thiazol-2-yl]-4,6-dimethoxypyrimidine-5-carboxamide] | 100 to 500
7 | COc1ncnc(OC)c1C(=O)Nc1nc(-c2ccc(C(F)(F)F)cn2)c(S(=O)(=O)c2ccc(C)cc2)s1 [Example 109, 4,6-dimethoxy-N-[5-(p-tolylsulfonyl)-4-[5-(trifluoromethyl)-2-pyridyl]-1,3-thiazol-2-yl]pyrimidine-5-carboxamide] | 100 to 500
8 | COc1ncnc(OC)c1C(=O)Nc1nc(-c2ccc(C(F)(F)F)cn2)c(S(C)(=O)=O)s1 [Example 114, 4,6-dimethoxy-N-[5-methylsulfonyl-4-[5-(trifluoromethyl)-2-pyridyl]-1,3-thiazol-2-yl]pyrimidine-5-carboxamide] | 100 to 500
9 | COc1ncnc(OC)c1C(=O)Nc1nc(C(F)(F)F)c(C(C)(C)O)s1 [Example 116, N-[5-(2-hydroxypropan-2-yl)-4-(trifluoromethyl)-1,3-thiazol-2-yl]-4,6-dimethoxypyrimidine-5-carboxamide] | > 1000
10 | COc1ncnc(OC)c1C(=O)Nc1nc(C(F)(F)F)c(C2(F)CCOCC2)s1 [Example 118, N-[5-(4-fluorotetrahydro-2H-pyran-4-yl)-4-(trifluoromethyl)-1,3-thiazol-2-yl]-4,6-dimethoxypyrimidine-5-carboxamide] | 500 to 1000
11 | COc1ncnc(OC)c1C(=O)Nc1nc(C(F)(F)F)c(C2(O)CCC2)s1 [Example 119, N-[5-(1-hydroxycyclobutyl)-4-(trifluoromethyl)-1,3-thiazol-2-yl]-4,6-dimethoxypyrimidine-5-carboxamide] | > 1000
12 | COc1ncnc(OC)c1C(=O)Nc1nc(C(F)(F)F)c(C(C)(O)c2ccccc2)s1 (stereo not shown) [Example 122, N-[5-(1-hydroxy-1-phenylethyl)-4-(trifluoromethyl)-1,3-thiazol-2-yl]-4,6-dimethoxypyrimidine-5-carboxamide] | < 50
13 | CO/N=C(\c1ccccc1)c1sc(NC(=O)c2c(OC)ncnc2OC)nc1C(F)(F)F [Example 125, 4,6-dimethoxy-N-{5-[(E)-(methoxyimino)(phenyl)methyl]-4-(trifluoromethyl)-1,3-thiazol-2-yl}pyrimidine-5-carboxamide] | < 50
14 | COc1ncnc(OC)c1C(=O)Nc1nc(C(F)(F)F)c(/C(=N/O)c2ccccn2)s1 [Example 128, N-{5-[(E)-(hydroxyimino)(pyridin-2-yl)methyl]-4-(trifluoromethyl)-1,3-thiazol-2-yl}-4,6-dimethoxypyrimidine-5-carboxamide] | 100 to 500
15 | COc1ncnc(OC)c1C(=O)Nc1nc(C(F)(F)F)c(C(O)c2ccc(F)cn2)s1 (stereo not shown) [Example 130, N-{5-[(5-fluoropyridin-2-yl)(hydroxy)methyl]-4-(trifluoromethyl)-1,3-thiazol-2-yl}-4,6-dimethoxypyrimidine-5-carboxamide] | 100 to 500

More lines, now with the values ahead:

Row | IC50 [nM] | SMILES
16 | > 1000 | COc1ncnc(OC)c1C(=O)Nc1nc(/C=C/C2CC2)cs1 [Example 103, N-{4-[(E)-2-cyclopropylethenyl]-1,3-thiazol-2-yl}-4,6-dimethoxypyrimidine-5-carboxamide]
17 | 500 to 1000 | COc1ncnc(OC)c1C(=O)Nc1nc(CCc2ccc(F)cc2)cs1 [Example 107, N-{4-[2-(4-fluorophenyl)ethyl]-1,3-thiazol-2-yl}-4,6-dimethoxypyrimidine-5-carboxamide]
18 | 100 to 500 | COc1ncnc(OC)c1C(=O)Nc1nc(C(F)(F)F)c(S(=O)(=O)c2ccc(C)cc2)s1 [Example 110, 4,6-dimethoxy-N-[5-(p-tolylsulfonyl)-4-(trifluoromethyl)-1,3-thiazol-2-yl]pyrimidine-5-carboxamide]
19 | 500 to 1000 | COc1ncnc(OC)c1C(=O)Nc1nc(C(F)(F)F)c(S(=O)(=O)Cc2ccccc2)s1 [Example 111, N-[5-benzylsulfonyl-4-(trifluoromethyl)-1,3-thiazol-2-yl]-4,6-dimethoxy-pyrimidine-5-carboxamide]
20 | > 1000 | COc1ncnc(OC)c1C(=O)Nc1nc(C(F)(F)F)c([S+]([O-])Cc2ccccc2)s1 (stereo not shown) [Example 112, N-(5-(benzylsulfinyl)-4-(trifluoromethyl)thiazol-2-yl)-4,6-dimethoxypyrimidine-5-carboxamide]
21 | 500 to 1000 | COc1ncnc(OC)c1C(=O)Nc1nc(-c2ccc(C(F)(F)F)cn2)c([S+](C)[O-])s1 (stereo not shown) [Example 113, 4,6-dimethoxy-N-[5-methylsulfinyl-4-[5-(trifluoromethyl)-2-pyridyl]-1,3-thiazol-2-yl]pyrimidine-5-carboxamide]
22 | 50 to 100 | COc1ncnc(OC)c1C(=O)Nc1nc(C(F)(F)F)c(Sc2ccccc2)s1 [Example 115, 4,6-dimethoxy-N-[5-phenylsulfanyl-4-(trifluoromethyl)-1,3-thiazol-2-yl]pyrimidine-5-carboxamide]
23 | > 1000 | COc1ncnc(OC)c1C(=O)Nc1nc(C(F)(F)F)c(C2(O)CCOCC2)s1 [Example 117, N-[5-(4-hydroxytetrahydro-2H-pyran-4-yl)-4-(trifluoromethyl)-1,3-thiazol-2-yl]-4,6-dimethoxypyrimidine-5-carboxamide]
24 | 100 to 500 | COc1ncnc(OC)c1C(=O)Nc1nc(C(F)(F)F)c(C(O)c2ccccc2)s1 (stereo not shown) [Example 120, N-{5-[hydroxy(phenyl)methyl]-4-(trifluoromethyl)-1,3-thiazol-2-yl}-4,6-dimethoxypyrimidine-5-carboxamide]
25 | 50 to 100 | COc1ncnc(OC)c1C(=O)Nc1nc(C(F)(F)F)c(C(=O)c2ccccc2)s1 [Example 121, N-[5-benzoyl-4-(trifluoromethyl)-1,3-thiazol-2-yl]-4,6-dimethoxypyrimidine-5-carboxamide]
26 | 100 to 500 | COc1ncnc(OC)c1C(=O)Nc1nc(C(F)(F)F)c(C(O)C(C)(C)C)s1 (stereo not shown) [Example 123, N-[5-(1-hydroxy-2,2-dimethylpropyl)-4-(trifluoromethyl)-1,3-thiazol-2-yl]-4,6-dimethoxypyrimidine-5-carboxamide]
27 | < 50 | COc1ncnc(OC)c1C(=O)Nc1nc(C(F)(F)F)c(C(=O)C(C)(C)C)s1 [Example 124, N-[5-(2,2-dimethylpropanoyl)-4-(trifluoromethyl)-1,3-thiazol-2-yl]-4,6-dimethoxypyrimidine-5-carboxamide]
28 | < 50 | COc1ncnc(OC)c1C(=O)Nc1nc(C(F)(F)F)c(/C(=N/O)c2ccccc2)s1 [Example 126, N-{5-[(E)-(hydroxyimino)(phenyl)methyl]-4-(trifluoromethyl)-1,3-thiazol-2-yl}-4,6-dimethoxypyrimidine-5-carboxamide]
29 | > 1000 | COc1ncnc(OC)c1C(=O)Nc1nc(C(F)(F)F)c(C(=O)c2ccccn2)s1 [Example 127, 4,6-dimethoxy-N-[5-(pyridin-2-ylcarbonyl)-4-(trifluoromethyl)-1,3-thiazol-2-yl]pyrimidine-5-carboxamide]
30 | > 1000 | COc1ncnc(OC)c1C(=O)Nc1nc(C(F)(F)F)c(C(C)(O)c2ccccn2)s1 (stereo not shown) [Example 129, N-{5-[1-hydroxy-1-(pyridin-2-yl)ethyl]-4-(trifluoromethyl)-1,3-thiazol-2-yl}-4,6-dimethoxypyrimidine-5-carboxamide]
31 | < 50 | COc1ncnc(OC)c1C(=O)Nc1nc(C(F)(F)F)c(C(=O)c2ccc(F)cn2)s1 [Example 131, N-{5-[(5-fluoropyridin-2-yl)carbonyl]-4-(trifluoromethyl)-1,3-thiazol-2-yl}-4,6-dimethoxypyrimidine-5-carboxamide]
